Assay results taken from publication PMC8972196, “A Set of Experimentally Validated Decoys for the Human CC Chemokine Receptor 7 (CCR7) Obtained by Virtual Screening” (Frontiers in Pharmacology, 2022).
Read-outs that look alike come from different tables or passages of the source.

Target: T1, human CCR7 (Homo sapiens, UniProt P32248)
T1 construct: expressed in transfected cells
T1 sequence (P32248 25-378): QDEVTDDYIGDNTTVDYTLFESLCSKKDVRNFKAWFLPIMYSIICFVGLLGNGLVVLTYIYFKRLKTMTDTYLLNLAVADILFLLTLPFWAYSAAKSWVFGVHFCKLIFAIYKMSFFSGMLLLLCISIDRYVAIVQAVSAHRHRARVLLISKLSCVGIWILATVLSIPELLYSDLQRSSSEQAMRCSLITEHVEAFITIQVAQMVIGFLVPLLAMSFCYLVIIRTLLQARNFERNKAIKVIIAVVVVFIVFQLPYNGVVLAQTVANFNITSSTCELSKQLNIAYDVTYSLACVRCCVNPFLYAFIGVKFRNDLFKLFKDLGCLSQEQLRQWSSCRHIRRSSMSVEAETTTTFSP
Experiment: CCL19-induced calcium mobilization assay, U87.CD4 cells expressing CCR7
Assay type: cell-based
Description: U87.CD4 cells that stably express either human CCR7, CXCR2, CCR5 or CXCR4 were seeded (20,000 cells/well) in gelatin-coated black-walled polystyrene 96-well plates with clear bottom and incubated overnight at 37°C and 5% CO2. […] Culture medium was removed, and cells were incubated for 45 min at room temperature in the dark. […] Exactly the same protocol was used to record calcium responses in Chinese hamster ovary (CHO)-K1 cells, upon stimulation with adenosine triphosphate (ATP, purchased from Sigma).

[1] = CCL19 induced calcium signaling, read-out: IC50 [μM] block CCL19 induced calcium signaling
[2] = classification as decoy or active on CCR7
[3] = CCL19-induced calcium signaling, read-out: IC50 [μM] block CCL19 induced calcium signaling
[4] = classification of tested compounds as decoy or active

With `Cc1cc(NCCn2cccn2)c2ccc(C(F)(F)F)cc2n1` [C162, Cc1cc(NCCn2cccn2)c2ccc(C(F)(F)F)cc2[nH+]1] the IC50 [1] was over 50 µM and the “Decoy – 0 Active – 1” value [2] was 0.

For `O=C(COc1ccccc1O)NCc1ccccc1Cl` [C174, O=C(COc1ccccc1O)NCc1ccccc1Cl], the IC50 [1] was over 50 µM and the “Decoy – 0 Active – 1” value [2] was 0.

With `CC(C)Oc1ccc2ccccc2c1CNC(=O)N1CCC(C)(O)C1` (stereo not drawn) [C169, CC(C)Oc1ccc2ccccc2c1CNC(=O)N1CCC(C)(O)C1] the IC50 [1] was over 50 µM and the “Decoy – 0 Active – 1” value [2] was 0.

`CCC(NS(=O)(=O)c1ccc(C)cc1)c1ccccc1OCC(=O)NC` (stereo not drawn) [C249, CCC(c1ccccc1OCC(=O)NC)NS(=O)(=O)c2ccc(cc2)C] was tested, and the IC50 [1] was over 50 µM and the “Decoy – 0 Active – 1” value [2] was 0.

`C[S@+]([O-])c1cccc(NC(=O)NCC2(c3cccc(F)c3)CC2)c1` [C130, C[S@](=O)c1cccc(NC(=O)NCC2(c3cccc(F)c3)CC2)c1] was tested, and the IC50 [3] was over 50 µM and the “Decoy – 0 Active – 1” value [4] was 0.

For `O=C(N[C@@H](c1nccs1)C1CC1)c1cc(N2CCOCC2)ccn1` [C147, O=C(N[C@@H](c1nccs1)C1CC1)c1cc(N2CCOCC2)cc[nH+]1], the IC50 [3] was over 50 µM and the “Decoy – 0 Active – 1” value [4] was 0.

With `COc1ccccc1NC(=O)CN(c1ccccc1)S(=O)(=O)c1ccc(OC)c(OC)c1` [C235, COc1ccccc1NC(=O)CN(c2ccccc2)S(=O)(=O)c3ccc(c(c3)OC)OC] the IC50 [1] was over 50 µM and the “Decoy – 0 Active – 1” value [2] was 0.

With `Cc1ccc(CN(C(=O)CNc2ccc(C(N)=O)c(C)c2)C2CC2)o1` [C053, Cc1ccc(CN(C(=O)CNc2ccc(C(N)=O)c(C)c2)C2CC2)o1] the IC50 [3] was over 10 µM and the “Decoy – 0 Active – 1” value [4] was 0.

For `O=[N+]([O-])c1ccc(C(O)CNC(=S)NCc2ccc3c(c2)OCO3)cc1` (stereo not drawn) [C030, OC(CNC(=S)NCc1ccc2OCOc2c1)c1ccc(cc1)[N+]([O-])=O], the IC50 [3] was over 30 µM and the “Decoy – 0 Active – 1” value [4] was 0.

In the case of `CCn1cccc(NC(=O)N2CC(Cc3ccccc3Br)C2)c1=O` [C079, CCn1cccc(NC(=O)N2CC(Cc3ccccc3Br)C2)c1=O], the IC50 [3] is reported as over 50 µM and the “Decoy – 0 Active – 1” value [4] is reported as 0.

With `O=c1c(NCC2COc3ccccc3O2)c(N2CCSCC2)c1=O` (stereo not drawn) [C003, O=c1c(NCC2COc3ccccc3O2)c(N2CCSCC2)c1=O] the IC50 [3] was over 50 µM and the “Decoy – 0 Active – 1” value [4] was 0.

For `CCNC(=O)CNc1ccc(C)c(C(=O)N(C)C)c1` [C072, CCNC(=O)CNc1ccc(C)c(C(=O)N(C)C)c1], the IC50 [3] was over 10 µM and the “Decoy – 0 Active – 1” value [4] was 0.

`CC(O)CNc1c(N2CCN(Cc3ccccc3Cl)CC2)c(=O)c1=O` (stereo not drawn) [C007, CC(O)CNc1c(N2CC[NH+](Cc3ccccc3Cl)CC2)c(=O)c1=O] was tested, and the IC50 was over 50 µM and the “Decoy – 0 Active – 1” value [4] was 0.

`O=S(=O)(NC(c1cccnc1)C1CCOCC1)c1ccc2c(c1)CCO2` (stereo not drawn) [C256, c1cc(cnc1)C(C2CCOCC2)NS(=O)(=O)c3ccc4c(c3)CCO4] was tested, and the IC50 [1] was over 50 µM and the “Decoy – 0 Active – 1” value [2] was 0.

With `O=C(NCC(O)(c1ccccc1)C(F)(F)F)c1cc(=O)c2ccccc2o1` (stereo not drawn) [C208, O=C(NCC(O)(c1ccccc1)C(F)(F)F)c1cc(=O)c2ccccc2o1] the IC50 [1] was over 50 µM and the “Decoy – 0 Active – 1” value [2] was 0.

In the case of `CC1CCCCN1C(=O)CNc1cc(C(=O)N(C)C)ccc1Cl` (stereo not drawn) [C074, CC1CCCCN1C(=O)CNc1cc(C(=O)N(C)C)ccc1Cl], the IC50 [3] is reported as over 10 µM and the “Decoy – 0 Active – 1” value [4] is reported as 0.

`CC1CN(C(=O)C(C)N2CCC(NS(=O)(=O)c3ccccc3)CC2)CC(C)O1` (stereo not drawn) [C272, CC1CN(CC(O1)C)C(=O)C(C)[NH+]2CCC(CC2)NS(=O)(=O)c3ccccc3] was tested, and the IC50 [1] was over 50 µM and the “Decoy – 0 Active – 1” value [2] was 0.

`CC(C)[C@@H](Nc1nccc(CCC(F)(F)F)n1)c1nccn1C` [C146, CC(C)[C@@H](Nc1nccc(CCC(F)(F)F)n1)c1nccn1C] was tested, and the IC50 [3] was over 50 µM and the “Decoy – 0 Active – 1” value [4] was 0.

`C[C@H](c1ccccc1)N(C)CC(=O)Nc1cccc(C(=O)N(C)C)c1` [C133, C[C@H](c1ccccc1)[N@@H+](C)CC(=O)Nc1cccc(C(=O)N(C)C)c1] was tested, and the IC50 [3] was over 50 µM and the “Decoy – 0 Active – 1” value [4] was 0.

In the case of `Cc1ccc(S(=O)(=O)NC(C)C(c2ccccc2)N2CCOCC2)cc1` (stereo not drawn) [C264, Cc1ccc(cc1)S(=O)(=O)NC(C)C(c2ccccc2)[NH+]3CCOCC3], the IC50 is reported as over 50 µM and the “Decoy – 0 Active – 1” value [2] is reported as 0.

In the case of `CC(C)(C)c1ccc(CN(Cc2ccccc2)Cc2nc(C(=O)N3CCOCC3)co2)cc1` [C243, CC(C)(C)c1ccc(cc1)C[NH+](Cc2ccccc2)Cc3nc(co3)C(=O)N4CCOCC4], the IC50 [1] is reported as over 50 µM and the “Decoy – 0 Active – 1” value [2] is reported as 0.

For `O=C(Nc1ccc(Cl)cc1Cl)N1CC(O)C(F)C1` (stereo not drawn) [C183, O=C(Nc1ccc(Cl)cc1Cl)N1CC(O)C(F)C1], the IC50 [1] was over 50 µM and the “Decoy – 0 Active – 1” value [2] was 0.

With `Cc1ccc(N[C@H]2CS(=O)(=O)C[C@H]2OC(=O)c2ccccc2)cc1` [C120, Cc1ccc(N[C@H]2CS(=O)(=O)C[C@H]2OC(=O)c2ccccc2)cc1] the IC50 [3] was over 50 µM and the “Decoy – 0 Active – 1” value [4] was 0.

`COC(=O)c1sccc1Nc1c(NCc2ccc(Cl)cc2)c(=O)c1=O` [C009, COC(=O)c1sccc1Nc1c(NCc2ccc(Cl)cc2)c(=O)c1=O] was tested, and the IC50 [3] was over 50 µM and the “Decoy – 0 Active – 1” value [4] was 0.

For `COc1ccc(S(=O)(=O)Nc2ccccc2C(=O)N2CCOCC2)cc1C` [C260, Cc1cc(ccc1OC)S(=O)(=O)Nc2ccccc2C(=O)N3CCOCC3], the IC50 [1] was over 50 µM and the “Decoy – 0 Active – 1” value [2] was 0.

With `CCc1ccc(C(NC(=O)NC2C=CC(CO)C2)C(C)(C)C)o1` (stereo not drawn) [C200, CCc1ccc(C(NC(=O)NC2C=CC(CO)C2)C(C)(C)C)o1] the IC50 [1] was over 50 µM and the “Decoy – 0 Active – 1” value [2] was 0.

With `CC1CN(S(=O)(=O)c2ccc(CCC(=O)O)cc2)c2ccccc21` (stereo not drawn) [C268, CC1CN(c2c1cccc2)S(=O)(=O)c3ccc(cc3)CCC(=O)[O-]] the IC50 [1] was over 50 µM and the “Decoy – 0 Active – 1” value [2] was 0.

`C[C@@H]1CCN(Cc2ccccc2)C[C@H]1Nc1nccc(C(N)=O)c1[N+](=O)[O-]` [C116, C[C@@H]1CC[N@H+](Cc2ccccc2)C[C@H]1Nc1nccc(C(N)=O)c1[N+](=O)[O-]] was tested, and the IC50 [3] was over 50 µM and the “Decoy – 0 Active – 1” value [4] was 0.

With `CCC1(C(N)=O)CCCN(C(=O)NCc2c(Cl)cccc2Cl)C1` (stereo not drawn) [C165, CCC1(C(N)=O)CCCN(C(=O)NCc2c(Cl)cccc2Cl)C1] the IC50 [1] was over 50 µM and the “Decoy – 0 Active – 1” value [2] was 0.

In the case of `COc1ccc(S(=O)(=O)N2CC(C(=O)Nc3ccccc3)Oc3ccccc32)cc1` (stereo not drawn) [C265, COc1ccc(cc1)S(=O)(=O)N2CC(Oc3c2cccc3)C(=O)Nc4ccccc4], the IC50 [1] is reported as over 50 µM and the “Decoy – 0 Active – 1” value [2] is reported as 0.

`CCOC(=O)[C@H](NCC(=O)Nc1cccc(C(=O)N(C)C)c1)C(C)C` [C125, CCOC(=O)[C@H]([NH2+]CC(=O)Nc1cccc(C(=O)N(C)C)c1)C(C)C] was tested, and the IC50 [3] was over 50 µM and the “Decoy – 0 Active – 1” value [4] was 0.

With `Cc1c(C(=O)NCC2CC2)sc2ncnc(NCCc3ccccn3)c12` [C093, Cc1c(C(=O)NCC2CC2)sc2ncnc(NCCc3ccccn3)c12] the IC50 [3] was over 50 µM and the “Decoy – 0 Active – 1” value [4] was 0.

With `Cc1nc(CCCC(=O)N[C@H]2CCN(C(C)C)C2=O)cs1` [C090, Cc1nc(CCCC(=O)N[C@H]2CCN(C(C)C)C2=O)cs1] the IC50 [3] was over 50 µM and the “Decoy – 0 Active – 1” value [4] was 0.

`CC(=O)Nc1cccc(NCC(=O)N(Cc2ccc(C)o2)C2CC2)c1` [C054, CC(=O)Nc1cccc(NCC(=O)N(Cc2ccc(C)o2)C2CC2)c1] was tested, and the IC50 [3] was over 10 µM and the “Decoy – 0 Active – 1” value [4] was 0.

For `CC[C@@H](NC1=NS(=O)(=O)c2ccccc21)C(=O)NOC` [C156, CC[C@@H](NC1=NS(=O)(=O)c2ccccc21)C(=O)NOC], the IC50 [3] was over 50 µM and the “Decoy – 0 Active – 1” value [4] was 0.

In the case of `CC(C)C(CO)NC(=O)NC(c1cccc(F)c1F)C(F)(F)F` (stereo not drawn) [C191, CC(C)C(CO)NC(=O)NC(c1cccc(F)c1F)C(F)(F)F], the IC50 [1] is reported as over 50 µM and the “Decoy – 0 Active – 1” value [2] is reported as 0.
